Measurements published in patent US8013153B2, “Substituted pyrimidine kinase inhibitors” (Janssen Pharmaceutica, N.V., priority 2006, dated 2011).
pIC50: −log10 of the molar value. Where two headings read alike, the source gives them in different places.

Columns and labels:
CDK1:Cyclin-B = biological target: T1, CDK1:Cyclin-B (Homo sapiens, UniProt P06493); assay: CDK1 Screening Assay; assay type: biochemical
T1 construct: purchased New England Biolabs, Beverly, Mass; 6020; host or cells: insect cells
Method: (§1) A kinase reaction mixture was prepared containing 50 mM Tris-HCl pH=8, 10 mM MgCl2, 0.1 mM Na3PO4, 1 mM DTT, 10 μM ATP, 0.025 μM biotinylated histone-H1 peptide substrate and 0.2 μCuries per well ^33P-γ-ATP (2000-3000 Ci/mmol). 70 μL of the kinase reaction mixture was dispensed into the well of a streptavidin coated FlashPlate™ (Cat. # SMP103, NEN, Boston, Mass.). Then 1 μL of test compound stock in 100% DMSO was added to the wells resulting in a final concentration of 1% DMSO in the reaction with a 100 μL final reaction volume.
(§2) The CDK1:Cyclin-B protein was diluted in 50 mM Tris-HCl pH=8.0, 0.1% BSA at a concentration of 1 ng per μL and 30 μL (30 ng enzyme per test well) was added to each well to initiate the reaction. The reaction was incubated for one hour at 30° C. At the end of the 1 hour incubation, the reaction was terminated by aspirating the mixture from the plate and washing the wells twice with PBS containing 100 mM EDTA. The histone-H1 biotinylated peptide substrate became immobilized on the Flashplate™ and the incorporation of ^33P-γ-ATP was measured by reading the plate on a scintillation counter. Inhibition of the enzymatic activity of CDK1 was measured by observing a reduced amount of ^33P-γ-ATP incorporated into the immobilized peptide.
The CDK1 used was isolated from insect cells expressing both the human CDK1 catalytic subunit and its positive regulatory subunit cyclin B (New England Biolabs, Beverly, Mass., Cat. #6020).

murine Aurora-A = biological target: T2, murine Aurora-A (Mus musculus, UniProt P97477); assay: Aurora-A Screening Assay; assay type: biochemical
T2 construct: replaced with the full length protein encoding the murine Aurora-A; made in house; host or cells: sf9 insect cells
T2 sequence (P97477 1-395): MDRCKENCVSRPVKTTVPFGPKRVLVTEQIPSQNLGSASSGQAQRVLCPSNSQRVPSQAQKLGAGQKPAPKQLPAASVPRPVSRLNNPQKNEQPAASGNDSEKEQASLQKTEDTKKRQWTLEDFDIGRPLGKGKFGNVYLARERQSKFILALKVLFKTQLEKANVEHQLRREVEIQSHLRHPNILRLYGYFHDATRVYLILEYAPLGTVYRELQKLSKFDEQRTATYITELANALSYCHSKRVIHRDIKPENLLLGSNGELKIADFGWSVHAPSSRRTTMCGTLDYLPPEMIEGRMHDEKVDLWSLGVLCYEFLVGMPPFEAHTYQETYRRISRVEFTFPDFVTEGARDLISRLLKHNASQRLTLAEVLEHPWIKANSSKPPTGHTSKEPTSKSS
Method: as §1, §2
The Aurora-A kinase assay was carried out using the CDK kinase assay procedure except that the enzyme was replaced with the full length protein encoding the murine Aurora-A (Accession #GB BC014711) expressed and purified from sf9 insect cells.

HER2 cytoplasmic domain = biological target: T3, HER2 cytoplasmic domain (Homo sapiens, UniProt P04626); assay: HER2 Kinase Screening Assay; assay type: biochemical; settings: > means no observed 50% inhibition at the indicated test concentration; ~ means approximately 50% inhibition at that concentration
T3 construct: polyhistidine (N)
Method: as §1, §2
The HER2 kinase assay was carried out using the CDK kinase assay procedure except that the enzyme was replaced with a HER2 construct containing a polyhistidine tag at the N-terminus followed by 24 additional amino acids and the HER2 cytoplasmic domain beginning at amino acid 676 (Accession #M11730) to the end.

[1] = test system: HeLa cervical adenocarcinoma; assay: Inhibition of in vitro cell proliferation (HeLa); assay type: cell-based, human; settings: Homo sapiens, 14C-thymidine incorporation;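 note: cells exposed to compound for 24 h, then labelled 24 h with methyl 14C-thymidine, with uptake into DNA counted by scintillation against DMSO-only control wells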
HCT-116 colon carcinoma = assay: Inhibition of in vitro cell proliferation (HCT116); assay type: cell-based, human; settings: Homo sapiens, HCT-116, 14C-thymidine incorporation;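 note: cells exposed to compound for 24 h, then 14C-thymidine added for a further 24 h and its uptake into DNA counted by scintillation, DMSO-only wells as control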
A375 malignant melanoma = assay: Inhibition of in vitro cell proliferation (A375); assay type: cell-based, human; settings: Homo sapiens, A-375, 14C-thymidine incorporation;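 note: cells plated for 24 h, given compound for 24 h, then labelled with 14C-thymidine for another 24 h, with DMSO-only wells as control and counts read by scintillation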
[2] = biological target: T4, rat VEGF-R2 kinase domain (Rattus norvegicus, UniProt O08775); assay: VEGF-R2 Screening Assay; assay type: biochemical
T4 construct: amino acids 786-1343 of the rat VEGF-R2 kinase domain; polyhistidine (N)

[3] = > means no observed 50% inhibition at the indicated test concentration, ~ means approximately 50% inhibition at that concentration, read-out: IC50 VEGF-R2

T1 sequence (P06493 whole entry): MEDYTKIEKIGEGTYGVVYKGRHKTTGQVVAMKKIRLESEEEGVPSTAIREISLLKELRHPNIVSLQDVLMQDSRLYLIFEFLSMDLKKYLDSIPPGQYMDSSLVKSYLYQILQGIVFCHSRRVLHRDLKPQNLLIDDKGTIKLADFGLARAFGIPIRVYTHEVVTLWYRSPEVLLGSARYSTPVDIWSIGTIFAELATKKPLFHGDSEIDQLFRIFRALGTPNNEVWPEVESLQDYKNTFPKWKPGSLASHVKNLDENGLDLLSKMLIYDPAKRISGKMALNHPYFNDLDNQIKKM
T1 sequence (P14635 whole entry partner): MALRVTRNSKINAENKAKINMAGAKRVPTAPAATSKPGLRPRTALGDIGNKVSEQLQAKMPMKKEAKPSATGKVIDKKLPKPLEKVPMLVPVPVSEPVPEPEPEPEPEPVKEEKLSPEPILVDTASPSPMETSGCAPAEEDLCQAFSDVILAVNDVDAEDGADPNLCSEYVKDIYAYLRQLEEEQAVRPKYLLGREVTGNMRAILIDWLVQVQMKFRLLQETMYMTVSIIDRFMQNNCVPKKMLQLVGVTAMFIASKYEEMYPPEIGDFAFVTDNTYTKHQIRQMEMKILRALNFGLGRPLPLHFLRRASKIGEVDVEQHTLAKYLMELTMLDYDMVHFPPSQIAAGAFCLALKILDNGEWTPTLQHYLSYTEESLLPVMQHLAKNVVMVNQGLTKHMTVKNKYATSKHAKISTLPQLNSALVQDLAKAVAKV
T4 sequence (O08775 786-1343): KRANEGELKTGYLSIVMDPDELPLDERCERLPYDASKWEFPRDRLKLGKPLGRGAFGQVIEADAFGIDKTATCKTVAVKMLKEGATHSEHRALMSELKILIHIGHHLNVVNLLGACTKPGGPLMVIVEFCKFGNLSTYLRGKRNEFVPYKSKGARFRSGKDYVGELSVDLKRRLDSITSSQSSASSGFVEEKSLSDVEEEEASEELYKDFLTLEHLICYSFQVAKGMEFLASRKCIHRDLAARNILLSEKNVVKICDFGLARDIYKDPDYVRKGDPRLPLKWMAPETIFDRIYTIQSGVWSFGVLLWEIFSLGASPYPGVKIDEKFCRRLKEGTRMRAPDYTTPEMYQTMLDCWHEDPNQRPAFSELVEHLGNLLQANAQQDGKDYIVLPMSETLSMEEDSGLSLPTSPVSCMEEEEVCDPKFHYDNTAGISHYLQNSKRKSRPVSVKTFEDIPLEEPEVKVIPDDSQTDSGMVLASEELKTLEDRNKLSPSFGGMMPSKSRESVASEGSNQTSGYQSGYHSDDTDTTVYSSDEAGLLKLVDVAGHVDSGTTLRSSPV
T3 sequence (P04626 676-1255 limits assumed): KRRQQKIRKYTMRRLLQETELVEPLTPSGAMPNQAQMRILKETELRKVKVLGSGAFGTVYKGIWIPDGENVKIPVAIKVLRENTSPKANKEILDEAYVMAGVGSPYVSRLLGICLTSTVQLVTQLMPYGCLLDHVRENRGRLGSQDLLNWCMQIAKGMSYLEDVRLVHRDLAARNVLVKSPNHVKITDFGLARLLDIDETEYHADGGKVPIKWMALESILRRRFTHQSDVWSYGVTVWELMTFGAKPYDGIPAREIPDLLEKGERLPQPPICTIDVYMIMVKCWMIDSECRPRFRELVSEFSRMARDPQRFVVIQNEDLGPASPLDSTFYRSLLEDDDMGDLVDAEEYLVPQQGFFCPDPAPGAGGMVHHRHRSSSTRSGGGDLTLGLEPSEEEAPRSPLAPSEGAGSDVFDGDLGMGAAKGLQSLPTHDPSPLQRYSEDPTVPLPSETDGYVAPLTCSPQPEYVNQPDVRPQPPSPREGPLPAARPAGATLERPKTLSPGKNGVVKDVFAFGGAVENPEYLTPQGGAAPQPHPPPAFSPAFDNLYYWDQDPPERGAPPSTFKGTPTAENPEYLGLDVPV

SMILES	pIC50 (CDK1:Cyclin-B)	pIC50 (murine Aurora-A)	pIC50 (HER2 cytoplasmic domain)	IC50 [1] [µM]	IC50 (HCT-116 colon carcinoma) [µM]	IC50 (A375 malignant melanoma) [µM]	pIC50 [2, 3]	pIC50 ([2]; IC50 VEGF-R2)
CO/N=C/c1c(N)ncnc1Oc1ccc2[nH]c(C)cc2c1 [Cpd 2, 4-amino-6-(2-methyl-1H-indol-5-yloxy)-pyrimidine-5-carbaldehyde O-methyl-oxime]	< 4.00	~4.00	< 6.00	0.389	0.386	0.356	–	–
Cc1cc2c(F)c(Oc3ncnc(N)c3C=NOCCCCN3CCCCC3)ccc2[nH]1 [Cpd 24, 4-amino-6-(4-fluoro-2-methyl-1H-indol-5-yloxy)-pyrimidine-5-carbaldehyde O-(4-piperidin-1-yl-butyl)-oxime]	< 4.00	< 4.00	6.55	> 100	> 100	> 100	7.07	–
C=CCON=Cc1c(N)ncnc1Oc1ccc2[nH]c(C)cc2c1F [Cpd 31, 4-amino-6-(4-fluoro-2-methyl-1H-indol-5-yloxy)-pyrimidine-5-carbaldehyde O-allyl-oxime]	< 4.00	< 4.00	< 4.00	0.042	0.04	0.021	–	–
CNC(=O)Cc1ccc(Oc2ncnc(N)c2C=NOC)cc1 [Cpd 96, 2-{4-[6-amino-5-(methoxyimino-methyl)-pyrimidin-4-yloxy]-phenyl}-N-methyl-acetamide]	< 4.00	< 5.00	< 4.00	–	–	–	–	4.71
CNC(=O)c1ccc(Oc2ncnc(N)c2C=NOC)cc1 [Cpd 98, 4-[6-amino-5-(methoxyimino-methyl)-pyrimidin-4-yloxy]-N-methyl-benzamide]	< 4.00	< 4.00	< 4.00	–	–	–	–	–
CCNC(=O)Oc1ccc(Oc2ncnc(N)c2C=NOC)cc1 [Cpd 102, ethyl-carbamic acid 4-[6-amino-5-(methoxyimino-methyl)-pyrimidin-4-yloxy]-phenyl ester]	< 4.00	< 5.00	< 4.00	–	–	–	–	–
CON=Cc1c(N)ncnc1Oc1ccc(OC(=O)Nc2cccc(Cl)c2)cc1 [Cpd 105, (3-chloro-phenyl)-carbamic acid 4-[6-amino-5-(methoxyimino-methyl)-pyrimidin-4-yloxy]-phenyl ester]	< 4.00	< 4.00	< 4.00	–	–	–	< 4.00	–
CCOC(=O)c1c(C)[nH]c2ccc(Oc3ncnc(N)c3/C=N/OC)cc12 [Cpd 107, 5-[{6-amino-5-[(E)-(methoxyimino)methyl]-4-pyrimidinyl}oxy]-2-methyl-1H-indole-3-carboxylic acid ethyl ester]	< 4.00	< 4.00	< 4.00	–	–	–	< 4.00	–
CON=Cc1c(N)ncnc1OCc1cccc(F)c1 [Cpd 112, 4-amino-6-[(3-fluorophenyl)methoxy]-5-pyrimidinecarboxaldehyde O-methyloxime]	–	–	< 5.00	–	–	–	–	–
CON=Cc1c(N)ncnc1OCc1ccc2ccccc2c1 [Cpd 115, 4-amino-6-(2-naphthalenylmethoxy)-5-pyrimidinecarboxaldehyde O-methyloxime]	–	–	–	–	–	–	< 5.00	–

The next lines start with results.

pIC50 (CDK1:Cyclin-B)	pIC50 (murine Aurora-A)	pIC50 (HER2 cytoplasmic domain)	IC50 [1] [µM]	IC50 (HCT-116 colon carcinoma) [µM]	IC50 (A375 malignant melanoma) [µM]	pIC50 [2, 3]	SMILES	pIC50 ([2]; IC50 VEGF-R2)
< 4.00	4.47	~5.00	–	–	–	–	Cc1cc2c(F)c(Oc3ncnc(N)c3C=NOCCCN(C)C)ccc2[nH]1 [Cpd 17, 4-amino-6-(4-fluoro-2-methyl-1H-indol-5-yloxy)-pyrimidine-5-carbaldehyde O-(3-dimethylamino-propyl)-oxime]	–
< 4.00	< 4.00	5.81	0.715	2.78	0.429	7.43	Cc1cc2c(F)c(Oc3ncnc(N)c3C=NOCCCN3CCCCC3)ccc2[nH]1 [Cpd 20, 4-amino-6-(4-fluoro-2-methyl-1H-indol-5-yloxy)-pyrimidine-5-carbaldehyde O-(3-piperidin-1-yl-propyl)-oxime]	–
< 4.00	< 5.00	6.12	24.5	68.1	11.2	7.44	Cc1cc2c(F)c(Oc3ncnc(N)c3C=NOCCCN3CCNCC3)ccc2[nH]1 [Cpd 21, 4-amino-6-(4-fluoro-2-methyl-1H-indol-5-yloxy)-pyrimidine-5-carbaldehyde O-(3-piperazin-1-yl-propyl)-oxime]	–
< 4.00	< 5.00	5.40	0.346	0.438	0.3	–	COCCCON=Cc1c(N)ncnc1Oc1ccc2[nH]c(C)cc2c1F [Cpd 33, 4-amino-6-(4-fluoro-2-methyl-1H-indol-5-yloxy)-pyrimidine-5-carbaldehyde O-(3-methoxy-propyl)-oxime]	–
< 4.00	< 4.00	< 5.00	–	–	–	~6.00	CNC(=O)n1c(C)cc2c(F)c(Oc3ncnc(N)c3C=NOC)ccc21 [Cpd 43, 5-[6-amino-5-(methoxyimino-methyl)-pyrimidin-4-yloxy]-4-fluoro-2-methyl-indole-1-carboxylic acid methylamide]	–
< 4.00	< 4.00	5.55	–	–	–	–	CON=Cc1c(N)ncnc1Oc1ccc(CC(=O)Nc2cccc(F)c2)cc1 [Cpd 100, 2-{4-[6-amino-5-(methoxyimino-methyl)-pyrimidin-4-yloxy]-phenyl}-N-(3-fluoro-phenyl)-acetamide]	–
< 4.00	< 5.00	< 4.00	–	–	–	–	CCNC(=O)Cc1ccc(Oc2ncnc(N)c2C=NOC)cc1 [Cpd 101, 2-{4-[6-amino-5-(methoxyimino-methyl)-pyrimidin-4-yloxy]-phenyl}-N-ethyl-acetamide]	–
< 4.00	< 4.00	< 4.00	–	–	–	7.03	CCNC(=O)Nc1ccc(Oc2ncnc(N)c2C=NOCCN2CCOCC2)cc1Cl [Cpd 103, 1-(4-{6-amino-5-[(2-morpholin-4-yl-ethoxyimino)-methyl]-pyrimidin-4-yloxy}-2-chloro-phenyl)-3-ethyl-urea]	–
< 4.00	< 4.00	< 4.00	–	–	–	7.39	CCNC(=O)Nc1ccc(Oc2ncnc(N)c2C=NOCCOC)cc1Cl [Cpd 104, 1-(4-{6-amino-5-[(2-methoxy-ethoxyimino)-methyl]-pyrimidin-4-yloxy}-2-chloro-phenyl)-3-ethyl-urea]	–
< 4.00	< 4.00	< 5.00	–	–	–	< 5.00	CON=Cc1c(N)ncnc1Oc1cc(OC)cc(OC)c1 [Cpd 106, 4-amino-6-(3,5-dimethoxyphenoxy)-5-pyrimidinecarboxaldehyde O-methyloxime]	–
< 4.00	< 5.00	< 5.00	–	–	–	5.40	CON=Cc1c(N)ncnc1Oc1ccc2c(c1)OCO2 [Cpd 108, 4-amino-6-(1,3-benzodioxol-5-yloxy)-5-pyrimidinecarboxaldehyde O-methyloxime]	–
< 4.00	< 4.00	< 6.00	–	–	–	< 4.00	CON=Cc1c(N)ncnc1Oc1ccc(F)c(Cl)c1 [Cpd 109, 4-amino-6-(3-chloro-4-fluorophenoxy)-5-pyrimidinecarboxaldehyde O-methyloxime]	–
< 4.00	< 4.00	< 4.00	–	–	–	< 4.00	CO/N=C/c1c(N)ncnc1Oc1ccc2[nH]cc(CCNC(C)=O)c2c1 [Cpd 113, N-[2-{5-[{6-amino-5-[(E)-(methoxyimino)methyl]-4-pyrimidinyl}oxy]-1H-indol-3-yl}ethyl]-acetamide]	–
